Data set [1] concerns the target T1, beta-galactosidase (Escherichia coli, UniProt P00722).
T1 construct: gene lacZ
Kind of data set: product-feedback inhibition of ONPG hydrolysis, absorbance at […] nm. Format: biochemical.

Data set [2] addresses T1, beta-galactosidase. Kind of data set: ONPG hydrolysis absorbance assay at […] nm, Lineweaver-Burk. Format: biochemical.
The target in data set [3] is T1, beta-galactosidase. Kind of data set: hydrolysis kinetics (Km), absorbance of 2-nitrophenol at […] nm. Format: biochemical.
Substrate in data set [4]: CCO
Kind of data set: ethanol oxidation kinetics (Km), NADH absorbance, Lineweaver-Burk. The data set is classed as biochemical, Saccharomyces cerevisiae. Conditions: NAD+ binds the E-NAD complex (ordered Bi-Bi).

T1 sequence (P00722 2-1024): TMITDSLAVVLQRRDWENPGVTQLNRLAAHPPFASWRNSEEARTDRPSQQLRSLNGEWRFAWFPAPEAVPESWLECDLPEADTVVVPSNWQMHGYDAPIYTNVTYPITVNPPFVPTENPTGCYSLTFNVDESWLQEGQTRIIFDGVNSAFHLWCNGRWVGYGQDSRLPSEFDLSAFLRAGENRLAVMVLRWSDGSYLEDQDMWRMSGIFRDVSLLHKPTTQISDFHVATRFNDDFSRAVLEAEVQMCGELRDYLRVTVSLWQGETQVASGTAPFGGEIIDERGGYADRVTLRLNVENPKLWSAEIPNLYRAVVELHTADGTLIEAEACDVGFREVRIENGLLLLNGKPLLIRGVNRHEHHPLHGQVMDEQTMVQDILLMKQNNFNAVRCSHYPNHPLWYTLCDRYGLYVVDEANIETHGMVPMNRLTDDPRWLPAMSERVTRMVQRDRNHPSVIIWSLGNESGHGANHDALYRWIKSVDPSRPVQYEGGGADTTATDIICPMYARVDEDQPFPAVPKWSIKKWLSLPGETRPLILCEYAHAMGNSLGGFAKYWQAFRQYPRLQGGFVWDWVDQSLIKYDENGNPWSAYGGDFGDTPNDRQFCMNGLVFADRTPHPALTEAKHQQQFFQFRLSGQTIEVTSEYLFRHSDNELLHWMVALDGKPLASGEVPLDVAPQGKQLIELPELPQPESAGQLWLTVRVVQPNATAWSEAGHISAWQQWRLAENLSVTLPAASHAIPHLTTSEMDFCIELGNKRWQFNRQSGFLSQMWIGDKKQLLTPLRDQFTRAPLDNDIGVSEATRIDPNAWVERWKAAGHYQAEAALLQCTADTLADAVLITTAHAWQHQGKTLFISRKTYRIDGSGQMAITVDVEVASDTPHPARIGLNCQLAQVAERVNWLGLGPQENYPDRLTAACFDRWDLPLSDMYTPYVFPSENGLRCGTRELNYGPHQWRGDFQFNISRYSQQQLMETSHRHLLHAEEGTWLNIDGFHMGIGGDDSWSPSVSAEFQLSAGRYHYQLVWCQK

Regarding `OC[C@H]1OC(O)[C@H](O)[C@@H](O)[C@H]1O` (stereo partly shown) [Gal, galactose], the inhibition constant (Ki) in data set [1] is 13.7 mM.
In data set [2], `OC[C@H]1O[C@@H](SCCc2ccccc2)[C@H](O)[C@@H](O)[C@H]1O` [PETG, phenylethyl beta-D-thiogalactopyranoside] yielded a Ki of 0.00233 mM.
As for `O=[N+]([O-])c1ccccc1O[C@@H]1O[C@H](CO)[C@H](O)[C@H](O)[C@H]1O` [ONPG, o-nitrophenyl-β-D-galactopyranoside], in data set [3], the Km is 167 µM.

B1: alcohol dehydrogenase (Saccharomyces cerevisiae S288C) (protein)
chain: SIPETQKGVIFYESHGKLEYKDIPVPKPKANELLINVKYSGVCHTDLHAWHGDWPLPVKLPLVGGHEGAGVVVGMGENVKGWKIGDYAGIKWLNGSCMACEYCELGNESNCPHADLSGYTHDGSFQQYATADAVQAAHIPQGTDLAQVAPILCAGITVYKALKSANLMAGHWVAISGAAGGLGSLAVQYAKAMGYRVLGIDGGEGKEELFRSIGGEVFIDFTKEKDIVGAVLKATDGGAHGVINVSVSEAAIEASTRYVRANGTTVLVGMPAGAKCCSDVFNQVVKSISIVGSYVGNRADTREALDFFARGLVKSPIKVVGLSTLPEIYEKMEKGQIVGRYVVDTSK
notes: yeast alcohol dehydrogenase (cat# A7011)
Take B1: the Km in data set [4] came out at 14300 µM.

A word on the Ki: it is the dissociation constant of the complex between target and ligand, obtained from inhibition or displacement. A low value points to higher affinity. In general, Km refers to the concentration of substrate that gives half-maximal velocity.

For the origin of these results see PMC9554301, “Rapid modeling of experimental molecular kinetics with simple electronic circuits instead of with complex differential equations” (Frontiers in Bioengineering and Biotechnology, 2022).
